Where a name gives a salt, the structure may show the parent alone.
Columns and labels:
[1] = system: systolic blood pressure; assay: Antihypertensive activity, reduction in systolic blood pressure, single oral medication, unanesthetized spontaneous hypertensive rat; format: in vivo; conditions: for Actual reduction in blood pressure observed at the indicated dose / Antihypertensive activity SH Rat AHD40 (single oral dose required to induce a 40 mm. average reduction in systolic blood pressure): P.O.; for Antihypertensive activity SH Rat AHD40 (single oral dose required to induce a 40 mm. average reduction in systolic blood pressure): unanesthetized SH rat
Experimental: Antihypertensive activity was determined on the basis of the observed reduction in systolic blood pressure measured according to the method of H. Kersten et al., J. Lab. and Clin. Med. 32, 1090 (1947) following a single oral medication in the unanesthetized spontaneous hypertensive rat described by Okamato et al., Japan Circulation J. 27, 282 (1963).
^a AHD40 = single oral dose required to induce a 40 mm. average

[2] = system: Ba++-induced arrhythmia; assay: Conversion of Ba++-induced arrhythmia in rabbits; format: in vivo; parameters: key: active (A); inactive (I)
Experimental: (§1) The test procedures were carried out as follows.
Adult rabbits or either sex weighing between 1.7 and 2.3 kg. were anesthetized with 30 to 35 mg./kg. Na-pentobarbital i.v. via a marginal ear vein. Monoplar ECG pin electrodes were inserted for a lead II display on a Model 5 Grass Polygraph using standard electrocardiographic procedures. A 23 ga. hypodermic needle, attached via a polyethylene catheter to a 10 cc. syringe, was inserted into the same vein as was used for anesthesia. A BaCl2.2H2 O solution in saline was then infused at a constant volume of 0.2 cc/min. from a Harvard Apparatus Model 600 infusion pump. This infusion was not stopped until termination of the experiment. In some studies barium chloride in distilled water was used without detectable differences. The standard rate of BaCl2.2H2 O infusion was established at 0.3 mg./kg./min. (1.2×10^-6 M/kg./min.), and the concentration was adjusted appropriately in each case to accommodate the weight of the rabbit.
When the desired arrhythmia was established, the test compound was introduced as a water or saline solution into the marginal ear vein of the unused ear. The volume used was between 0.5 and 2.0 cc./kg. and was injected as a bolus over approximately 30 seconds. Deviations from standard vehicle, rate of injection and total volume administered were at the discretion of the operator. The standard initial dose of an unknown compound on the first rabbit was 5×10^-5 M/kg. In general, two to three rabbits were used to determine anti-arrhythmic activity and the dose range of activity; multiple doses were administered. Once activity and dose was indicated, two additional rabbits were employed to confirm anti-arrhythmic activity against a multifocal tachycardia.

[3] = system: β-adrenergic; assay: β-adrenergic blocking activity, inhibition of isoproterenol-elicited heart rate increase in pentobarbitalized dog; format: in vivo; conditions: i.v.; for Dog β-blockade AED50 (approximate intravenous dose for 50% inhibition of isoproterenol-elicited heart rate increase): pentobarbitalized dog
Experimental: The β-adrenergic blocking activity was determined in the pentobarbitalized dog as judged by the ability of the test compound to inhibit the elevation in heart rate elicited by a 0.5 mcg./kg. i.v. injection of isoproterenol.
^e AED50 = approximate intravenous dose required to cause 50%

[4] = system: Ouabain-induced arrhythmia; assay: Conversion of ouabain-induced arrhythmia in dogs; format: in vivo, mongrel dogs; parameters: key: active (A); inactive (I)
Experimental: as §1
Na-pentobarbital supplements were given i.v. as needed.
Both parameters were printed out on a Grass polygraph.

[5] = system: hind limb vasculature; assay: Vasodilator activity, perfusion pressure in hind limb vasculature of anesthetized dog; format: in vivo; conditions: intraarterial, anesthetized dog hind limb; for ED50: Canis lupus familiaris, read-out: Vasodilator activity Dog-Leg Perfusion AED50 (approximate intraarterial dose for 50 reduction in perfusion pressure)
Description: (§2) Vasodilator activity was judged on the basis of observed reduction in perfusion pressure in the hind limb vasculature of the anesthetized dog determined according to the procedure described by Jandhyala et al., European J. Pharm. 17, 357 (1972), and also on the basis of percent reduction in perfusion pressure as measured in the isolated rabbit ear artery according to the method described by De LaLande et al., Aust. J. Exp. Biol. Med. Sci. 43, 639 (1965).
^c AED50 = approximate intraarterial dose required to cause a 50

[6] = system: blood pressure; assay: Antihypertensive activity, sustained lowering of blood pressure, repeated oral medication, unanesthetized trained renal hypertensive dog; format: in vivo; conditions: tid.
Description: Antihypertensive activity was also judged on the basis of sustained reduction of blood pressure observed in the unanesthetized trained renal hypertensive dog following repeated oral medication according to the procedure described by Lape et al., Arch.
^b MED10 = minimum repeated oral daily dose required to effect a

[7] = Acute intravenous and oral toxicity in mice; format: in vivo
Experimental: Acute intravenous and oral toxicity in mice was determined for the compound of Example 2G as follows: The compound was dissolved in distilled water and administered as the base at a volume of 10 ml./kg. for the i.v. ALD50 or 10-40 ml./kg. for the p.o. ALD50. The compound was administered in graded doses to groups of three mice each (Swiss-Webster strain males weighing 20±2 g.). Mortality occurred within 1 minute after i.v. administration and within 10 minutes after oral administration. […] The i.v. ALD50 was 75 mg./kg. and the p.o. ALD50 was 1500 mg./kg.

[8] = system: isolated rabbit ear artery; assay: Vasodilator activity, perfusion pressure in isolated rabbit ear artery; conditions: 5 × 10^-5 M, 50 µM
Description: as §2
^d Vasodilation is expressed as the percentage reduction in perfusion

With `CC(CCc1ccc(O)cc1)NCCc1ccc(O)c([S+](C)[O-])c1` (single isomer, unassigned) [Example 30E, 4-<2-{[3-(4-hydroxy-phenyl)-1-mehylpropyl]amino}ethyl>-2-(methylsulfinyl)phenol hydrochloride] the “Actual reduction in blood pressure observed at the indicated dose” value (“Actual reduction” below) ([1]; 50 mg./kg.) was -3 mm. Hg, the “Antihypertensive activity SH Rat AHD40 (single oral dose required to induce a 40 mm. average reduction in systolic blood pressure)” value [1] was > 50 mg/kg and the “Conversion of Ba++-induced Arrhythmia” value ([2]; 2 × 10^-5 M/kg.) was “A”. For the same molecule, the “Dog β-blockade AED50 (approximate intravenous dose for 50% inhibition of isoproterenol-elicited heart rate increase)” value [3] was “ca. 0.50 mg./kg” and the “Conversion of Ouabain-induced Arrhythmia” value ([4]; 1 × 10^-5 M/kg.) was “A”.
For `COc1ccc(CCC(C)NCC(O)c2ccc(O)c([S+](C)[O-])c2)cc1` (stereo not drawn) [Example 2G, 4-hydroxy-α-<{[3-(4-methoxyphenyl)-1-methylpropyl]amino}methyl>-3-(methylsulfinyl)benzenemethanol acetate salt], the “Antihypertensive activity SH Rat AHD40 (single oral dose required to induce a 40 mm. average reduction in systolic blood pressure)” value ([1]; acetate salt) was 2.0 mg/kg, the “Antihypertensive activity (in words)” value ([1]; standard pharmacological tests on representative examples) was “high antihypertensive activity” and the “Vasodilator activity Dog-Leg Perfusion AED50 (approximate intraarterial dose for 50 reduction in perfusion pressure)” value ([5]; acetate salt) was 0.5 mg/kg. The “Renal Hypertensive Dog MED10 (minimum repeated oral daily dose for sustained lowering of blood pressure of 10% or greater)” value [6] was 0.0316 mg/kg, the “Time of mortality after i.v. administration” value ([7]; i.v.) was ≤ 1 min and the “Symptoms of acute intoxication for the fatalities” value ([7]; mouse, in vivo) was “atoxia, loss of righting reflux, clonic convulsions and dyspnea followed by respiratory arrest”. For the same molecule, the “Untoward symptoms in survivors” value ([7]; mouse, in vivo) was “no untoward symptoms observed for up to 7 days for the survivors”, the LD50 ([7]; mouse, in vivo, iv) was 75 mg/kg and the LD50 ([7]; mouse, in vivo, po) was 1500 mg/kg. The “Time of mortality after oral administration” value ([7]; oral) was ≤ 10 min, the “Dog β-blockade AED50 (approximate intravenous dose for 50% inhibition of isoproterenol-elicited heart rate increase)” value ([3]; acetate salt) was 0.025 mg/kg and the “Rabbit Ear Artery vasodilation (percentage reduction in perfusion pressure from control level)” value ([8]; acetate salt) was 50%.
In the case of `CC(=O)O.C[S+]([O-])c1cc(C(O)CNC(C)(C)CCc2ccccc2)ccc1O` (stereo not drawn) [Example 17C, α-{[(1,1-dimethyl-3-phenylpropyl)amino]methyl}-4-hydroxy-3-(methylsulfinyl)benzenemethanol acetate salt], the “Actual reduction” value ([1]; 20 mg./kg.) is reported as -37 mm. Hg, the “Antihypertensive activity SH Rat AHD40 (single oral dose required to induce a 40 mm. average reduction in systolic blood pressure)” value [1] is reported as > 20.0 mg/kg and the ED50 [5] is reported as 0.5 mg/kg. For the same molecule, the “Conversion of Ba++-induced Arrhythmia” value ([2]; 2.5 × 10^-6 M/kg.) was “A”, the “Dog β-blockade AED50 (approximate intravenous dose for 50% inhibition of isoproterenol-elicited heart rate increase)” value [3] was 0.05 mg/kg and the “Conversion of Ouabain-induced Arrhythmia” value ([4]; 5 × 10^-6 M/kg.) was “A”. The “Rabbit Ear Artery vasodilation (percentage reduction in perfusion pressure from control level)” value [8] was 50%.
In the case of `CC(=O)O.CC(CCc1ccccc1)NCC(O)c1ccc(O)c([S+](C)[O-])c1` (stereo not drawn) [Example 19C, 4-hydroxy-α-{[(1-methyl-3-phenylpropyl)amino]methyl}-3-(methylsulfinyl)benzenemethanol acetate salt], the “Antihypertensive activity SH Rat AHD40 (single oral dose required to induce a 40 mm. average reduction in systolic blood pressure)” value [1] is reported as 20.0 mg/kg, the ED50 [5] is reported as 0.5 mg/kg and the “Renal Hypertensive Dog MED10 (minimum repeated oral daily dose for sustained lowering of blood pressure of 10% or greater)” value [6] is reported as > 0.125 mg/kg. For the same molecule, the “Actual percentage reduction in blood pressure observed at the indicated dose” value ([6]; 0.125 mg./kg.) was 0%, the “Conversion of Ba++-induced Arrhythmia” value ([2]; 2.5 × 10^-6 M/kg.) was “A” and the “Actual percentage inhibition of heart rate increase above control level observed at the indicated dose” value ([3]; 0.025 mg./kg.) was 67%. The “Dog β-blockade AED50 (approximate intravenous dose for 50% inhibition of isoproterenol-elicited heart rate increase)” value [3] was < 0.025 mg/kg, the “Conversion of Ouabain-induced Arrhythmia” value ([4]; 5 × 10^-5 M/kg.) was “A” and the “Rabbit Ear Artery vasodilation (percentage reduction in perfusion pressure from control level)” value [8] was 50%.
For `COc1ccc(CCC(C)(C)NCCc2ccc(O)c([S+](C)[O-])c2)cc1` (stereo not drawn) [Example 34C, 4-<2-{[3-(4-methoxyphenyl)-1,1-dimethylpropyl]amino}ethyl>-2-(methylsulfinyl)phenol hydrochloride], the “Actual reduction” value ([1]; 50 mg./kg.) was -8 mm. Hg, the “Antihypertensive activity SH Rat AHD40 (single oral dose required to induce a 40 mm. average reduction in systolic blood pressure)” value [1] was > 50 mg/kg and the “Conversion of Ba++-induced Arrhythmia” value ([2]; 2.5 × 10^-6 M/kg.) was “A”. For the same molecule, the “Actual percentage inhibition of heart rate increase above control level observed at the indicated dose” value ([3]; 1.0 mg./kg.) was 40%, the “Dog β-blockade AED50 (approximate intravenous dose for 50% inhibition of isoproterenol-elicited heart rate increase)” value [3] was > 1.0 mg/kg and the “Conversion of Ouabain-induced Arrhythmia” value ([4]; 2 × 10^-5 M/kg.) was “A”.
